Test results as given in PMC6887723, “Design and Synthesis of 4-(Heterocyclic Substituted Amino)-1H-Pyrazole-3-Carboxamide Derivatives and Their Potent Activity against Acute Myeloid Leukemia (AML)” (International Journal of Molecular Sciences, 2019).

What was measured:
Assay in all cases: Hot-Spot kinase profiling
Format in all cases: biochemical
ABL1 = molecular target: T1, ABL1 (Homo sapiens, UniProt P00519); conditions: read-out: % Enzyme Activity (Relative to DMSO Controls) ABL1
T1 construct: purchased Reaction Biology Corp. (HotSpot kinase assay)
Experimental: (§1) Activities of kinases were determined using Hot-SpotSM kinase assay which was performed by Reaction Biology Corp. (Malvern PA, USA) as described previously.

AKT1 = molecular target: T2, AKT1 (Homo sapiens, UniProt P31749); conditions: read-out: % Enzyme Activity (Relative to DMSO Controls) AKT1
T2 construct: purchased Reaction Biology Corp. (HotSpot kinase assay)
Experimental: as §1

ALK1/ACVR1 = conditions: 0.15 μM
Experimental: as §1

CDK2/cyclin A = molecular target: T3, CDK2/cyclin A (Homo sapiens, UniProt P24941)
T3 construct: purchased Reaction Biology Corp
Experimental: as §1

CDK3/cyclin E = molecular target: T4, CDK3/cyclin E (Homo sapiens, UniProt Q00526)
T4 construct: purchased Reaction Biology Corp
T4 sequence (Q00526 whole entry): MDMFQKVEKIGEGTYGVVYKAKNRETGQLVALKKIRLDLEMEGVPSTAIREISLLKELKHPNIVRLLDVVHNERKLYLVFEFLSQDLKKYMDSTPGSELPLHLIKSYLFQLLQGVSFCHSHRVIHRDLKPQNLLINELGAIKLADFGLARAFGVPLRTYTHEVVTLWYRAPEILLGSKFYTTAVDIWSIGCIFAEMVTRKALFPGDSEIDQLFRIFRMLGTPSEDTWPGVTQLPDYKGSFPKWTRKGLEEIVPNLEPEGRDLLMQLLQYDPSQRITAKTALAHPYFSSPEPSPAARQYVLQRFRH
T4 sequence (P24864 whole entry partner): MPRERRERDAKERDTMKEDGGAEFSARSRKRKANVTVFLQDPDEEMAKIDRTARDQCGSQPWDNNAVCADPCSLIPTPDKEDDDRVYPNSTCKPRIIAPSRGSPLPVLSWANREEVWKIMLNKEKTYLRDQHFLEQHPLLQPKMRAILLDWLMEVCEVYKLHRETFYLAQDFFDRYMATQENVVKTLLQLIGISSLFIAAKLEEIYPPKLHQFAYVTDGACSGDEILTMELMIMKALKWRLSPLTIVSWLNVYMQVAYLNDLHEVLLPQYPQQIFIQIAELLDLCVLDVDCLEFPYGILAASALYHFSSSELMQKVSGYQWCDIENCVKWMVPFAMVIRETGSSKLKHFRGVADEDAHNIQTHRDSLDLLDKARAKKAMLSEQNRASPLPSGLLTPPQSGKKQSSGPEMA
Experimental: as §1

CDK6/cyclin D1 = molecular target: T5, CDK6/cyclin D1 (Homo sapiens, UniProt Q00534)
T5 construct: purchased Reaction Biology Corp
T5 sequence (Q00534 whole entry): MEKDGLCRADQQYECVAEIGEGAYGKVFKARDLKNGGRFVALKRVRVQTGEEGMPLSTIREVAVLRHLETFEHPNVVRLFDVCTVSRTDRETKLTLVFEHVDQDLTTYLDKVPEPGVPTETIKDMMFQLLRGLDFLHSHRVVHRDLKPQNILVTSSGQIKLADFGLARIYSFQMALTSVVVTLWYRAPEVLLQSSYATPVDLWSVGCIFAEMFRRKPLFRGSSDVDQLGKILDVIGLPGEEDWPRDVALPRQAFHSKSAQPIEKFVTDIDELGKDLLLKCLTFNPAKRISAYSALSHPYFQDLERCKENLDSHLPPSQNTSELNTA
T5 sequence (P24385 whole entry partner): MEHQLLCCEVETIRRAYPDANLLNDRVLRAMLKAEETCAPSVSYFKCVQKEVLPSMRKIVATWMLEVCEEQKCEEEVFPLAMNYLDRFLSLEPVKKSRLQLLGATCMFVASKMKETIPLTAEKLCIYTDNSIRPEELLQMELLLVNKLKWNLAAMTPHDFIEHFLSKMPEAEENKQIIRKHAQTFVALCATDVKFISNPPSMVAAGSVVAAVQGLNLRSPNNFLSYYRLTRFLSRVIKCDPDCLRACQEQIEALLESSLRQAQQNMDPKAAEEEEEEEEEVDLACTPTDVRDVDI
Experimental: as §1

CDK7/cyclin H = molecular target: T6, CDK7/cyclin H (Homo sapiens, UniProt P50613)
T6 construct: purchased Reaction Biology Corp
T6 sequence (P50613 whole entry): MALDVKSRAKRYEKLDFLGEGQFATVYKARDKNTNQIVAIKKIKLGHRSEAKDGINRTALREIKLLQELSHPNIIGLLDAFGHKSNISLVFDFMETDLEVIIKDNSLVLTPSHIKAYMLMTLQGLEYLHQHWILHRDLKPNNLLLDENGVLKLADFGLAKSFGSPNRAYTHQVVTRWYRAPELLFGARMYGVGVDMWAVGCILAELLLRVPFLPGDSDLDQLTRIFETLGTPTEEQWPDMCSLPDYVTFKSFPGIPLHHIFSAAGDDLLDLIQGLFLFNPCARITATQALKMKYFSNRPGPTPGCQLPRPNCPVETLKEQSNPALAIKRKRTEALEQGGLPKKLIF
T6 sequence (P51946 whole entry partner): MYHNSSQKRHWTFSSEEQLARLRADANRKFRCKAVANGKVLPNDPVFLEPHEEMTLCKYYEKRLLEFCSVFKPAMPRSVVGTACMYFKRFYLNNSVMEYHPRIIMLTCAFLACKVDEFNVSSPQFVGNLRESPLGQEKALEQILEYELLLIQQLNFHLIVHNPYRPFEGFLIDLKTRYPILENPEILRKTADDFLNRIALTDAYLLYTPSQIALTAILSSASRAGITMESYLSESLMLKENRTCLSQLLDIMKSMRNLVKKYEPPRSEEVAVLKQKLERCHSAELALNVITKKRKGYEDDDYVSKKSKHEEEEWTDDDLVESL
T6 sequence (P51948 whole entry partner): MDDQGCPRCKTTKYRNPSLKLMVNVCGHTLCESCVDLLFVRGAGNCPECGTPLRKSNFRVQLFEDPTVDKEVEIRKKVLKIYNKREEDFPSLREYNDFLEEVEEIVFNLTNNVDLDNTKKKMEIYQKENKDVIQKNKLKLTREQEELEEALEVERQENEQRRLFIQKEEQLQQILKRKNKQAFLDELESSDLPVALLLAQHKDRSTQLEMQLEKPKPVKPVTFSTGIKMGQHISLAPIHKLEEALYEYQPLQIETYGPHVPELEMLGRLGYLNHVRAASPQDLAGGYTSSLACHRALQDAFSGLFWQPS
Experimental: as §1

ERK7/MAPK15 = molecular target: T7, ERK7/MAPK15 (Homo sapiens, UniProt Q8TD08)
T7 construct: purchased Reaction Biology Corp
Experimental: as §1

FLT1/VEGFR1 = molecular target: T8, FLT1/VEGFR1 (Homo sapiens, UniProt P17948)
T8 construct: purchased Reaction Biology Corp
T8 sequence (P17948 27-1338): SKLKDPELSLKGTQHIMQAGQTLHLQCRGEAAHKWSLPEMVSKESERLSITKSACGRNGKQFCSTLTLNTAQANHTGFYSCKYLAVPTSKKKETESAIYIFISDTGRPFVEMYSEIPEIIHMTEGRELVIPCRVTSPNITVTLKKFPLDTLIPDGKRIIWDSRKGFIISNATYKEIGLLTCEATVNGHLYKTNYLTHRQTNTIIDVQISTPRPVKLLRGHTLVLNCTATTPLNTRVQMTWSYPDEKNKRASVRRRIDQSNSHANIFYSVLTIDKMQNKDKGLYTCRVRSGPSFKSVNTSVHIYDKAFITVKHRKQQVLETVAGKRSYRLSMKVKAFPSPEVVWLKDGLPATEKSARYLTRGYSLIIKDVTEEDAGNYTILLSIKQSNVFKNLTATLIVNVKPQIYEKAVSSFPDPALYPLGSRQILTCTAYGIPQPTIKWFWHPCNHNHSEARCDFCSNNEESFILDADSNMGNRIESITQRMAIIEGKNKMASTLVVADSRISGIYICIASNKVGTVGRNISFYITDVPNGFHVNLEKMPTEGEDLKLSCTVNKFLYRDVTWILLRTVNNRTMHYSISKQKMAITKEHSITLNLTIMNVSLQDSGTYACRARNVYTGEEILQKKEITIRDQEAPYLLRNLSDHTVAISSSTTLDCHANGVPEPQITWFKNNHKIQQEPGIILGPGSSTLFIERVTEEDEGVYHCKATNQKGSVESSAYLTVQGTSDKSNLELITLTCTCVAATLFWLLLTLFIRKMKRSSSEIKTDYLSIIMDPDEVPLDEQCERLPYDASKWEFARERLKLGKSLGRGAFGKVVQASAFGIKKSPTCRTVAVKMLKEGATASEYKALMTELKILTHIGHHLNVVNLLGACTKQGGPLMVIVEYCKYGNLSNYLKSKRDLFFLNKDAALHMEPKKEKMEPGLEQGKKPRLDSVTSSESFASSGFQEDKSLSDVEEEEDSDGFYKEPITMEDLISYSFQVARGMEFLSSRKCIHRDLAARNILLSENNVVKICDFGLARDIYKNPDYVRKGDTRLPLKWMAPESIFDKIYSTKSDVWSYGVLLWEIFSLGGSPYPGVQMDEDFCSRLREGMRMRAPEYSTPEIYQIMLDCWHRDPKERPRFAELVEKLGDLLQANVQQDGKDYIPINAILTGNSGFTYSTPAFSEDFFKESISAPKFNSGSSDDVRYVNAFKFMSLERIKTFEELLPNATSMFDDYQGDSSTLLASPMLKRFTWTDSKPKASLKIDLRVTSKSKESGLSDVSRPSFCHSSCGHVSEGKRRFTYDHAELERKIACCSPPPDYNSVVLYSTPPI
Experimental: as §1

FLT3 (F594_R595insR) = molecular target: T9, FLT3 (F594_R595insR) (Homo sapiens, UniProt P36888, INS594R)
T9 construct: purchased Reaction Biology Corp
T9 sequence (P36888 with tags, fused parts or gaps INS594R limits assumed): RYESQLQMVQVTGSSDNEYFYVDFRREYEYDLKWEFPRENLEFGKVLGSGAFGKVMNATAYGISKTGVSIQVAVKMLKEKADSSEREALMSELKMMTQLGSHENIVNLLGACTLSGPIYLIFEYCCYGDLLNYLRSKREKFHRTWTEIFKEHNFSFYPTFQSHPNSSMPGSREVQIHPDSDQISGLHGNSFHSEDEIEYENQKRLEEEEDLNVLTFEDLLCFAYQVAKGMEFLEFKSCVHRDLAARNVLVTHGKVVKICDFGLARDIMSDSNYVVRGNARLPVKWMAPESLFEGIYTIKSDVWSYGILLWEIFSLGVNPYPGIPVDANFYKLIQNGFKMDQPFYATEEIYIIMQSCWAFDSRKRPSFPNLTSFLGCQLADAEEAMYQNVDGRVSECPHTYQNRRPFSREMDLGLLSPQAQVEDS
Experimental: as §1

FLT3 (F594_R595insREY) = molecular target: T10, FLT3 (F594_R595insREY) (Homo sapiens, UniProt P36888, INS594REY)
T10 construct: purchased Reaction Biology Corp
T10 sequence (P36888 with tags, fused parts or gaps INS594REY limits assumed): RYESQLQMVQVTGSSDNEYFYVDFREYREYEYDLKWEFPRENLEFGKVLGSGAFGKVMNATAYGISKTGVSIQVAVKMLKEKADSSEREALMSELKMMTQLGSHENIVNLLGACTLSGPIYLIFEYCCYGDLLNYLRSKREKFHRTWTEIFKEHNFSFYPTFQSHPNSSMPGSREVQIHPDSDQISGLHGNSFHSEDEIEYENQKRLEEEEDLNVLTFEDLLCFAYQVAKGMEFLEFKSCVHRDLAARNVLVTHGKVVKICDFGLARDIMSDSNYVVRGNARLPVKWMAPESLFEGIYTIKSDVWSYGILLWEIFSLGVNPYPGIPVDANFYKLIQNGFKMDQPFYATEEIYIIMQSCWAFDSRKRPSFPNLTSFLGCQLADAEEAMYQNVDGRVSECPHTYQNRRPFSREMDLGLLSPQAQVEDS
Experimental: as §1

FLT3 = molecular target: T11, FLT3 (Homo sapiens, UniProt P36888)
T11 construct: purchased Reaction Biology Corp
T11 sequence (P36888 27-993): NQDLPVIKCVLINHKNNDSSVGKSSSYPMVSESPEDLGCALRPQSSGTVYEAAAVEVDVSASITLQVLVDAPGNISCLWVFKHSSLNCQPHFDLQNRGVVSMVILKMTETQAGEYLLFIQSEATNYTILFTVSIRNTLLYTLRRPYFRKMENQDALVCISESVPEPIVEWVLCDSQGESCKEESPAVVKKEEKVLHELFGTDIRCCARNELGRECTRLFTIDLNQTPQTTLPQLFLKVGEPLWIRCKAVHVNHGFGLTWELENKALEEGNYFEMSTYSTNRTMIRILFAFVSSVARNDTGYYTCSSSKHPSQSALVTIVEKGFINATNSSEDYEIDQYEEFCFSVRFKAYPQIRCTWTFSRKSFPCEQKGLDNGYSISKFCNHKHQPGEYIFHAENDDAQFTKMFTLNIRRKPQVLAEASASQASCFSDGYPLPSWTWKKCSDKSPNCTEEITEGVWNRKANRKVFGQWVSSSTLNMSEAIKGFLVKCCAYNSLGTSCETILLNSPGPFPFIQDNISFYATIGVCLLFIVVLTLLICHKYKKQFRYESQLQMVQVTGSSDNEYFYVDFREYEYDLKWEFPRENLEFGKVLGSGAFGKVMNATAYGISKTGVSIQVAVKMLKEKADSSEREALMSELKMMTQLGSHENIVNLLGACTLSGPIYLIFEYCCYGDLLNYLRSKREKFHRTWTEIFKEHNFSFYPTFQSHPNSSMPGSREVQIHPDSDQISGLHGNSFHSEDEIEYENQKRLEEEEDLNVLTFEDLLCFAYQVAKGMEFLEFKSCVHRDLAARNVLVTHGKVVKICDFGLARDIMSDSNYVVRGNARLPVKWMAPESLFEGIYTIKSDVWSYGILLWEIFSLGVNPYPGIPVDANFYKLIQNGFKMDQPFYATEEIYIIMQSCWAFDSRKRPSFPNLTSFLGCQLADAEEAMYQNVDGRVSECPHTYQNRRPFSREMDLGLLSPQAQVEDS
Experimental: as §1

FLT3 (ITD)-F691L = FLT3 (ITD)-F691L (Homo sapiens, UniProt P36888, F691L/ITD); conditions: Table 5 kinase profiling
Experimental: as §1

FLT3 (R595_E596insEY) = molecular target: T12, FLT3 (R595_E596insEY) (Homo sapiens, UniProt P36888, INS595EY)
T12 construct: purchased Reaction Biology Corp
T12 sequence (P36888 with tags, fused parts or gaps INS595EY limits assumed): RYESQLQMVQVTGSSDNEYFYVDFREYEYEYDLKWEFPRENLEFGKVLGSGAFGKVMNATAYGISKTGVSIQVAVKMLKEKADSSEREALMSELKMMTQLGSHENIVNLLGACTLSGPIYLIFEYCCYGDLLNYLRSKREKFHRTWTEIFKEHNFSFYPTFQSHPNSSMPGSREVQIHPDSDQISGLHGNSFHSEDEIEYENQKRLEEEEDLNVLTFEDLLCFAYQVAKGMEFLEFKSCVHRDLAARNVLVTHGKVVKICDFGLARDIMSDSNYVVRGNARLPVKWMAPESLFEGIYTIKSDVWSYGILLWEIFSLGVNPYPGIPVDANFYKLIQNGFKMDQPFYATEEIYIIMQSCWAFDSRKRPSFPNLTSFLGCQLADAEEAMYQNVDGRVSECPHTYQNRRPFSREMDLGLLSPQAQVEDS
Experimental: as §1

JNK1 = molecular target: T13, JNK1 (Homo sapiens, UniProt P45983); conditions: read-out: % Enzyme Activity (Relative to DMSO Controls) JNK1
T13 construct: purchased Reaction Biology Corp. (Malvern PA, USA)
Experimental: as §1

PDGFRa = molecular target: T14, PDGFRa (Homo sapiens, UniProt P16234); conditions: read-out: % Enzyme Activity (Relative to DMSO Controls) PDGFRa
T14 construct: purchased Reaction Biology Corp. (Malvern PA, USA)
Experimental: as §1

c-Kit = molecular target: T15, c-Kit (Homo sapiens, UniProt P10721); conditions: read-out: % Enzyme Activity (Relative to DMSO Controls) c-Kit
T15 construct: purchased Reaction Biology Corp. (HotSpot kinase assay)
Experimental: as §1

c-MET = molecular target: T16, c-MET (Homo sapiens, UniProt P08581); conditions: read-out: % Enzyme Activity (Relative to DMSO Controls) c-MET
T16 construct: purchased Reaction Biology Corp. (HotSpot kinase assay)
Experimental: as §1

remaining activity at 0.15 µM (ABL1): 81%
remaining activity at 0.15 µM (AKT1): 122%
% Enzyme Activity (Relative to DMSO Controls) ALK1/ACVR1 (ALK1/ACVR1): 57.96%
remaining activity at 0.15 µM (CDK2/cyclin A; 0.15 μM, read-out: % Enzyme Activity (Relative to DMSO Controls) CDK2/cyclin A): 4.01%
IC50 (CDK2/cyclin A; Table 5 kinase profiling): 2.56 ± 0.31 nM
remaining activity at 0.15 µM (CDK3/cyclin E; 0.15 μM, read-out: % Enzyme Activity (Relative to DMSO Controls) CDK3/cyclin E): 5.94%
IC50 (CDK3/cyclin E; Table 5 kinase profiling): 6.88 ± 0.25 nM
remaining activity at 0.15 µM (CDK6/cyclin D1; 0.15 μM, read-out: % Enzyme Activity (Relative to DMSO Controls) CDK6/cyclin D1): 1.33%
IC50 (CDK6/cyclin D1; Table 5 kinase profiling): 0.59 ± 0.09 nM
remaining activity at 0.15 µM (CDK7/cyclin H; 0.15 μM, read-out: % Enzyme Activity (Relative to DMSO Controls) CDK7/cyclin H): 19.9%
IC50 (CDK7/cyclin H; Table 5 kinase profiling): 21.3 ± 1.01 nM
remaining activity at 0.15 µM (FLT1/VEGFR1; 0.15 μM, read-out: % Enzyme Activity (Relative to DMSO Controls) FLT1/VEGFR1): 6.08%
IC50 (FLT1/VEGFR1; Table 5 kinase profiling): 12.4 ± 0.19 nM
remaining activity at 0.15 µM (FLT3 (F594_R595insR); 0.15 μM, read-out: % Enzyme Activity (Relative to DMSO Controls) FLT3 (F594_R595insR)): 0.47%
IC50 (FLT3 (F594_R595insR); Table 5 kinase profiling): 0.63 ± 0.09 nM
remaining activity at 0.15 µM (FLT3 (F594_R595insREY); 0.15 μM, read-out: % Enzyme Activity (Relative to DMSO Controls) FLT3 (F594_R595insREY)): 0.8%
IC50 (FLT3 (F594_R595insREY); Table 5 kinase profiling): 1.38 ± 0.11 nM
remaining activity at 0.15 µM (FLT3; 0.15 μM, read-out: % Enzyme Activity (Relative to DMSO Controls) FLT3): 0.01%
IC50 (FLT3; Table 5 kinase profiling): 0.035 ± 0.01 nM
IC50 (FLT3 (ITD)-F691L): 0.6 ± 0.01 nM
remaining activity at 0.15 µM (FLT3 (R595_E596insEY); 0.15 μM, read-out: % Enzyme Activity (Relative to DMSO Controls) FLT3 (R595_E596insEY)): 0.44%
IC50 (FLT3 (R595_E596insEY); Table 5 kinase profiling): 1.59 ± 0.14 nM
remaining activity at 0.15 µM (JNK1): 39.2%
remaining activity at 0.15 µM (PDGFRa): 82.8%
remaining activity at 0.15 µM (c-Kit): 64.8%
remaining activity at 0.15 µM (c-MET): 99%
Structure (SMILES): O=C(Nc1ccc(N2CCNCC2)cc1)c1n[nH]cc1Nc1ncnc2sc3c(c12)CCC3 [Compound 8t]
remaining activity at 0.15 µM (ERK7/MAPK15; 0.15 μM, read-out: % Enzyme Activity (Relative to DMSO Controls) ERK7/MAPK15): 2.96%
IC50 (ERK7/MAPK15; Table 5 kinase profiling): 9.57 ± 0.23 nM
